Assays:
[1] = Therapeutic Index was determined; conditions: read-out: TI
[2] = Lethal dose at a concentration of 0.225 mmol/kg in mice administered intraperitoneally; type: toxicity, organism-based; conditions: mouse, in vivo, ip
[3] = In vivo antitumor activity against murine S-180 sarcoma at a dose of 9.6 mg/kg administered intraperitoneally 7qd in mice expressed effect on tumor weight; type: functional, Mus musculus; conditions: route intraperitoneal
[4] = In vivo antitumor activity against murine S-180 sarcoma at a dose of 4.8 mg/kg administered intraperitoneally 7qd in mice expressed as percent inhibition; type: functional; conditions: Mus musculus, S-180, ip, route intraperitoneal
[5] = In vivo antitumor activity against murine S-180 sarcoma at a dose of 6.5 mg/kg administered intraperitoneally 7qd in mice expressed as percent inhibition; type: functional; conditions: Mus musculus, S-180, ip, route intraperitoneal
[6] = In vivo antitumor activity against murine S-180 sarcoma at a dose of 9.6 mg/kg administered intraperitoneally 7qd in mice expressed as percent inhibition; type: functional; conditions: Mus musculus, S-180, ip, route intraperitoneal
Mus musculus [7] = test: Antitumor activity against murine S-180 sarcoma at dose of LD50 X 1/10 equal toxicity; type: functional
Mus musculus [8] = test: Antitumor activity against murine S-180 sarcoma at dose of LD50 X 1/20 equal toxicity; type: functional
Mus musculus [9] = test: Antitumor activity against murine S-180 sarcoma at dose of LD50 X 1/40 equal toxicity; type: functional
[10] = In vivo antitumor activity against murine S-180 sarcoma at a dose of 13 mg/kg administered intraperitoneally 7qd in Male TA1 mice; 9 survived out of 10 mice; type: functional, Mus musculus; conditions: route intraperitoneal
[11] = In vivo antitumor activity against murine S-180 sarcoma at a dose of 2.5 mg/kg administered intraperitoneally 7qd in Male TA1 mice; 10 survived out of 10 mice; type: functional, Mus musculus; conditions: route intraperitoneal
[12] = In vivo antitumor activity against murine S-180 sarcoma at a dose of 3.3 mg/kg administered intraperitoneally 7qd in Male TA1 mice; 10 survived out of 10 mice; type: functional, Mus musculus; conditions: route intraperitoneal
[13] = In vivo antitumor activity against murine S-180 sarcoma at a dose of 6.5 mg/kg administered intraperitoneally 7qd in Male TA1 mice; 10 survived out of 10 mice; type: functional, Mus musculus; conditions: route intraperitoneal
[14] = In vivo antitumor activity against murine S-180 sarcoma at a dose of 9.6 mg/kg administered intraperitoneally 7qd in Male TA1 mice; 9 survived out of 10 mice; type: functional, Mus musculus; conditions: route intraperitoneal
[15] = In vivo antitumor activity against murine S-180 sarcoma at a dose of 13 mg/kg administered intraperitoneally 7qd in mice expressed effect on tumor weight; type: functional, Mus musculus; conditions: route intraperitoneal
[16] = In vivo antitumor activity against murine S-180 sarcoma at a dose of 2.5 mg/kg administered intraperitoneally 7qd in mice expressed effect on tumor weight; type: functional, Mus musculus; conditions: route intraperitoneal
[17] = In vivo antitumor activity against murine S-180 sarcoma at a dose of 3.3 mg/kg administered intraperitoneally 7qd in mice expressed effect on tumor weight; type: functional, Mus musculus; conditions: route intraperitoneal
[18] = In vivo antitumor activity against murine S-180 sarcoma at a dose of 4.8 mg/kg administered intraperitoneally 7qd in mice expressed effect on tumor weight; type: functional, Mus musculus; conditions: route intraperitoneal
[19] = In vivo antitumor activity against murine S-180 sarcoma at a dose of 6.5 mg/kg administered intraperitoneally 7qd in mice expressed effect on tumor weight; type: functional, Mus musculus; conditions: route intraperitoneal
[20] = Antitumor activity against murine S-180 sarcoma at dose of 0.016(mmol/kg); type: functional, Mus musculus
[21] = Antitumor activity against murine S-180 sarcoma at dose of 0.022(mmol/kg); type: functional, Mus musculus
[22] = In vivo antitumor activity against murine S-180 sarcoma at a dose of 13 mg/kg administered intraperitoneally 7qd in mice; Body wt initial/Final = 19.8/18.0; type: functional, Mus musculus; conditions: route intraperitoneal
[23] = In vivo antitumor activity against murine S-180 sarcoma at a dose of 2.5 mg/kg administered intraperitoneally 7qd in mice; Body wt initial/Final = 19.9/23.4; type: functional, Mus musculus; conditions: route intraperitoneal
[24] = In vivo antitumor activity against murine S-180 sarcoma at a dose of 3.3 mg/kg administered intraperitoneally 7qd in mice; Body wt initial/Final = 19.6/22.5; type: functional, Mus musculus; conditions: route intraperitoneal
[25] = Antitumor activity against murine S-180 sarcoma at dose of 0.004(mmol/kg); type: functional, Mus musculus
[26] = Antitumor activity against murine S-180 sarcoma at dose of 0.008(mmol/kg); type: functional, Mus musculus
[27] = In vivo antitumor activity against murine S-180 sarcoma at a dose of 6.5 mg/kg administered intraperitoneally 7qd in mice; Body wt initial/Final = 19.8/19.5; type: functional, Mus musculus; conditions: route intraperitoneal
[28] = In vivo antitumor activity against murine S-180 sarcoma at a dose of 9.6 mg/kg administered intraperitoneally 7qd in mice; Body wt initial/Final = 19.6/18.3; type: functional, Mus musculus; conditions: route intraperitoneal
[29] = In vivo antitumor activity against murine S-180 sarcoma at a dose of 13 mg/kg administered intraperitoneally 7qd in mice expressed as percent inhibition; type: functional; conditions: Mus musculus, S-180, ip, route intraperitoneal
[30] = In vivo antitumor activity against murine S-180 sarcoma at a dose of 2.5 mg/kg administered intraperitoneally 7qd in mice expressed as percent inhibition; type: functional; conditions: Mus musculus, S-180, ip, route intraperitoneal
[31] = In vivo antitumor activity against murine S-180 sarcoma at a dose of 3.3 mg/kg administered intraperitoneally 7qd in mice expressed as percent inhibition; type: functional; conditions: Mus musculus, S-180, ip, route intraperitoneal
[32] = In vivo antitumor activity against murine S-180 sarcoma at a dose of 4.8 mg/kg administered intraperitoneally 7qd in mice; Body wt initial/Final = 19.8/20.7; type: functional, Mus musculus; conditions: route intraperitoneal
[33] = In vivo antitumor activity against murine S-180 sarcoma at a dose of 4.8 mg/kg administered intraperitoneally 7qd in Male TA1 mice; 10 survived out of 10 mice; type: functional, Mus musculus; conditions: route intraperitoneal
[34] = Lethal dose at a concentration of 0.163 mmol/kg in mice administered intraperitoneally; type: toxicity, organism-based; conditions: mouse, in vivo, ip
[35] = In vivo antitumor activity against murine S-180 sarcoma at a dose of 5 mg/kg administered intraperitoneally 7qd in mice expressed as percent inhibition; type: functional; conditions: Mus musculus, S-180, ip, route intraperitoneal
[36] = In vivo antitumor activity against murine S-180 sarcoma at a dose of 6.8 mg/kg administered intraperitoneally 7qd in mice expressed as percent inhibition; type: functional; conditions: Mus musculus, S-180, ip, route intraperitoneal
[37] = In vivo antitumor activity against murine S-180 sarcoma at a dose of 1.3 mg/kg administered intraperitoneally 7qd in Male TA1 mice; 10 survived out of 10 mice; type: functional, Mus musculus; conditions: route intraperitoneal
[38] = In vivo antitumor activity against murine S-180 sarcoma at a dose of 5 mg/kg administered intraperitoneally 7qd in Male TA1 mice; 9 survived out of 10 mice; type: functional, Mus musculus; conditions: route intraperitoneal
[39] = In vivo antitumor activity against murine S-180 sarcoma at a dose of 6.8 mg/kg administered intraperitoneally 7qd in Male TA1 mice; 9 survived out of 10 mice; type: functional, Mus musculus; conditions: route intraperitoneal
[40] = In vivo antitumor activity against murine S-180 sarcoma at a dose of 1.3 mg/kg administered intraperitoneally 7qd in mice expressed effect on tumor weight; type: functional, Mus musculus; conditions: route intraperitoneal
[41] = In vivo antitumor activity against murine S-180 sarcoma at a dose of 5 mg/kg administered intraperitoneally 7qd in mice expressed effect on tumor weight; type: functional, Mus musculus; conditions: route intraperitoneal
[42] = In vivo antitumor activity against murine S-180 sarcoma at a dose of 6.8 mg/kg administered intraperitoneally 7qd in mice expressed effect on tumor weight; type: functional, Mus musculus; conditions: route intraperitoneal
[43] = In vivo antitumor activity against murine S-180 sarcoma at a dose of 1.3 mg/kg administered intraperitoneally 7qd in mice; Body wt initial/Final = 19.9/23.4; type: functional, Mus musculus; conditions: route intraperitoneal
[44] = In vivo antitumor activity against murine S-180 sarcoma at a dose of 2.5 mg/kg administered intraperitoneally 7qd in mice; Body wt initial/Final = 20.0/21.3; type: functional, Mus musculus; conditions: route intraperitoneal
[45] = In vivo antitumor activity against murine S-180 sarcoma at a dose of 5 mg/kg administered intraperitoneally 7qd in mice; Body wt initial/Final = 19.7/19.1; type: functional, Mus musculus; conditions: route intraperitoneal
[46] = In vivo antitumor activity against murine S-180 sarcoma at a dose of 6.8 mg/kg administered intraperitoneally 7qd in mice; Body wt initial/Final = 19.8/18.4; type: functional, Mus musculus; conditions: route intraperitoneal
[47] = In vivo antitumor activity against murine S-180 sarcoma at a dose of 1.3 mg/kg administered intraperitoneally 7qd in mice expressed as percent inhibition; type: functional; conditions: Mus musculus, S-180, ip, route intraperitoneal

Structure (SMILES): Nc1ccc(S(=O)(=O)N(CCOC(=O)CCCc2ccc(N(CCCl)CCCl)cc2)c2ncccn2)cc1
- selectivity ratio [1]: 47.5
- LD50 [2]: 131 mg/kg
- Tumor weight [3]: 0.51
- inhibition in vivo at 4.8 mg/kg [4]: 63.4%
- inhibition in vivo at 6.5 mg/kg [5]: 74.2%
- inhibition in vivo at 9.6 mg/kg [6]: 76.9%
- LD50 x 1/10 (Mus musculus [7]): 81.5
- LD50 x 1/20 (Mus musculus [8]): 74.2
- LD50 x 1/40 (Mus musculus [9]): 50.7
- Mice In. / Fi. [10]: 9
- Mice In. / Fi. [11]: 10
- Mice In. / Fi. [12]: 10
- Mice In. / Fi. [13]: 10
- Mice In. / Fi. [14]: 9
- Tumor weight [15]: 0.41
- Tumor weight [16]: 1.15
- Tumor weight [17]: 1.09
- Tumor weight [18]: 0.81
- Tumor weight [19]: 0.57
- Antitumour activity [20]: 76.9
- Antitumour activity [21]: 81.5
- Body weight In. / Fi. [22]: 19.8 g
- Body weight In. / Fi. [23]: 19.9 g
- Body weight In. / Fi. [24]: 19.6 g
- Antitumour activity [25]: 47.9
- Antitumour activity [26]: 63.4
- Body weight In. / Fi. [27]: 19.8 g
- Body weight In. / Fi. [28]: 19.6 g
- inhibition in vivo at 13 mg/kg [29]: 81.5%
- inhibition in vivo at 2.5 mg/kg [30]: 48%
- inhibition in vivo at 3.3 mg/kg [31]: 50.7%
- Body weight In. / Fi. [32]: 19.8 g
- Mice In. / Fi. [33]: 10

Structure (SMILES): O=C(O)CCCc1ccc(N(CCCl)CCCl)cc1 [CHLORAMBUCIL]
- selectivity ratio [1]: 22.8
- LD50 [34]: 49.6 mg/kg
- inhibition in vivo at 5 mg/kg [35]: 73.3%
- inhibition in vivo at 6.8 mg/kg [36]: 77.4%
- LD50 x 1/10 (Mus musculus [7]): 73.3
- LD50 x 1/20 (Mus musculus [8]): 52.9
- LD50 x 1/40 (Mus musculus [9]): 37.1
- Mice In. / Fi. [37]: 10
- Mice In. / Fi. [11]: 10
- Mice In. / Fi. [38]: 9
- Mice In. / Fi. [39]: 9
- Tumor weight [40]: 1.39
- Tumor weight [16]: 1.04
- Tumor weight [41]: 0.59
- Tumor weight [42]: 0.5
- Antitumour activity [20]: 73.3
- Antitumour activity [21]: 77.4
- Body weight In. / Fi. [43]: 19.9 g
- Body weight In. / Fi. [44]: 20 g
- Antitumour activity [25]: 37.1
- Antitumour activity [26]: 52.9
- Body weight In. / Fi. [45]: 19.7 g
- Body weight In. / Fi. [46]: 19.8 g
- inhibition in vivo at 1.3 mg/kg [47]: 37.1%
- inhibition in vivo at 2.5 mg/kg [30]: 52.9%

— ChEMBL document CHEMBL1134243, “2-[N1-2-pyrimidyl-aminobenzenesulfonamido] ethyl 4-bis(2-chloroethyl) aminophenyl butyrate: a potent antitumor agent” (Bioorg Med Chem Lett, 2001)
